Results reported in patent US12077555B2, “STAT degraders and uses thereof” (Kymera Therapeutics, Inc., priority 2019, dated 2024).

What was measured:
SOCS3 = experiment: STAT3 RT-qPCR assay, SOCS3 mRNA; format: cell-based; details: SU-DHL-1 cells
Procedure: (§1) SU-DHL-1 cells were treated with compounds for a designed time. 0.3-0.6 mL lysis buffer with 2-mercaptoethanol was added to the collected cell pellet or monolayer cells. The cells were vortexed until the cell was dispersed and the cells appear lysed. One volume of 70% ethanol was added to each volume of cell homogenate and vortex. 700 μL of the sample was transferred to the spin cartridge and centrifuged at 12000 g for 15s at RT. The flow-through was discarded and the process repeated until the entire samples had been processed. 700 ul wash buffer I was added to the spin cartridge and centrifuged at 12000 g for 15s at RT and the flow-through was discarded. 500 μL wash buffer II with ethanol was added to the spin cartridge and centrifuged at 12000 g for 15s at RT and the flow-through was discarded. The process was then repeated. The spin cartridge was centrifuged at 12000 g for 2 min to dry the membrane with bound RNA. 30-100 μL RNase-free water was added to the center of the spin cartridge and incubated for 1 min at RT. […] The concentration of the RNA was quantitated using Nano-Drop. cDNA was formed from the RNA by reverse transcription and qPCR of the cDNA with primer of the gene of interest and housekeeping gene was preformed using the volumes below: […]

STAT3 = STAT3 RT-qPCR assay, STAT3 mRNA; format: cell-based; details: SU-DHL-1 cells, FIG. 5A, FIG. 15
Procedure: as §1

SUP-M2 cells = experiment: CellTiter-Glo cell viability, SUP-M2; format: cell-based
SU-DHL-1 cells = experiment: Caspase 3/7-Glo activity assay; format: cell-based; details: SU-DHL-1, FIG. 17
Procedure: Determination of apoptosis was determined using a Caspase 3/7-Glo assay.
• 1—Prepare the Caspase-Glo® 3/7 Reagent (Promega cat #G8090) • Equilibrate the Caspase-Glo® 3/7 Buffer and lyophilized Caspase-Glo® 3/7 Substrate to room temperature before use. • Transfer the contents of the Caspase-Glo® 3/7 Buffer bottle into the amber bottle containing Caspase-Glo® 3/7 Substrate. • Mix by swirling or inverting the contents until the substrate is thoroughly dissolved to form the Caspase-Glo® 3/7 Reagent • Aliquot and store at −20 • 2—If thawing the reagent, allow it to equilibrate to room temperature. Mix well. • 3—Remove white-walled 384-well plate containing treated cells from the incubator and allow plates to equilibrate to room temperature. • 4—Add Caspase-Glo® 3/7 Reagent to each well of the plate at 1:1 ratio with media. Because of the sensitivity of this assay, be careful not to touch pipet tips to the wells containing samples to avoid cross-contamination. Cover the plate with a plate sealer or lid. • 5—Gently mix contents of wells using a plate shaker at 300-500 rpm for 30 seconds. Incubate at room temperature for 30-60 minutes. Note: Temperature fluctuations will affect the luminescence reading. • 6—Measure the luminescence of each sample in a plate-reading luminometer as directed by the luminometer manufacturer.

SU-DHL-1 tumor cells = experiment: Xenograph tumor study, SU-DHL-1; format: in vivo, NOD SCID mice; details: for tumor volume, 5 days / tumor volume, 10 days / tumor volume, 15 days / tumor volume, 20 days: SUDHL-1 xenograph, 2.5-30 mg/kg, 2 days on/5 days off
Procedure: Animals: 50 6-8 week old female NOD SCID mice weighing 18 to 20 grams. 25 mice were used in each study.
Method for Tumor Inoculation: Each mouse was inoculated subcutaneously with SU-DHL-1 tumor cells (1×107+Matrigel) or SUP-M2 tumor cells (5×106+Matrigel) in 0.1 ml of RPMI1640 medium supplemented with 10% FBS, 100 U/ml penicillin and […] streptomycin for tumor development. Mice were then assigned to groups such that the mean tumor volume was the same for each treatment group and time point. […] Vehicle was 25% HP-β-CD in water adjusted to pH 7.4.
Measurement Parameters: Study animals were monitored not only for tumor growth but also behavior such as mobility, food and water consumption (by cage side checking only), body weight (BW), eye/hair matting and any other abnormal effect. Any mortality and/or abnormal clinical signs was recorded. Sponsor was notified immediately if abnormal clinical signs, or if tolerability issues were observed. Body weights of all animals were measured and recorded twice per week. The measurement of tumor size was conducted twice weekly with a caliper and recorded. The tumor volume (mm3) was estimated using the formula: TV=a×b2/2, where “a” and “b” are long and short diameters of a tumor, respectively.

SMILES: Cn1c(=O)n(C2CCC(=O)NC2=O)c2ccc(C[C@H]3CC[C@@H](CC(=O)N4CC[C@H]5CC[C@@H](C(=O)N[C@@H](CCC(N)=O)C(=O)NC(c6ccccc6)c6ccccc6)N5C(=O)[C@@H](NC(=O)c5cc6cc(C(=O)P(=O)(O)O)ccc6[nH]5)C4)CC3)cc21 (stereo partly drawn) [Compound I-174, 2-[[(5S,8S,10aR)-8-[[(1S)-3-carbamoyl-1-(diphenylmethylcarbamoyl)propyl]carbamoyl]-6-oxo-3-[2-[(1s,4s)-4-[[1-(2,6-dioxopiperidin-3-yl)-3-methyl-2-oxo-1,3-benzodiazol-5-yl]methyl]cyclohexyl]acetyl]-octahydropyrrolo[1,2-a][1,5]diazocin-5-yl]carbamoyl]-1H-indole-5-carbonylphosphonic acid]
- IC50 (SOCS3; Homo sapiens, 24 hr): 0.022 µM
- STAT3-dependent gene expression of SOCS3 (SOCS3; FIG. 5A, FIG. 15): downregulates
- STAT3-dependent gene expression of STAT3 (STAT3): downregulates
- IC50 (SUP-M2 cells; 96 h, SUP-M2, ALCL (ALK+), Day 4, read-out: CTG, IC50 μM, Day 4): 0.086 µM
- CTG (% Max inh), Day 4 (SUP-M2 cells; SUP-M2, ALCL (ALK+), Day 4): (95) %
- cell proliferation (SUP-M2 cells; SUP-M2, FIG. 16): inhibit
- decrease of STAT3 necessary to induce SU-DHL-1 apoptosis and inhibit cell growth (SU-DHL-1 cells): 90%
- tumor regression (SU-DHL-1 tumor cells; ALK+ALCL xenograph model SU-DHL-1, intermittent dosing, FIG. 19): achieves tumor regression
- tumor volume, 5 days (SU-DHL-1 tumor cells; IP): A (A<500 mm^3)
- tumor volume, 10 days (SU-DHL-1 tumor cells; IP): A (A<500 mm^3)
- tumor volume, 15 days (SU-DHL-1 tumor cells; IP): A (A<500 mm^3)
- tumor volume, 20 days (SU-DHL-1 tumor cells; IP): A (A<500 mm^3)
- tumor volume, 5 days (SU-DHL-1 tumor cells; IV): A (A<500 mm^3)
- tumor volume, 10 days (SU-DHL-1 tumor cells; IV): A (A<500 mm^3)
- tumor volume, 15 days (SU-DHL-1 tumor cells; IV): A (A<500 mm^3)
- tumor volume, 20 days (SU-DHL-1 tumor cells; IV): A (A<500 mm^3)
